Assay results published in patent publication US20090175845A1, “METHODS FOR IDENTIFYING COMPOUNDS THAT MODULATE PHB DOMAIN PROTEIN ACTIVITY AND COMPOSITIONS THEREOF” (THE TRUSTEES OF COLUMBIA UNIVERSITY IN THE CITY OF NEW YORK, priority 2005, published 2009).

Assays:
[1] = biological target: T1, Podocin (Mus musculus, UniProt Q91X05); experiment: Detergent-resistant membrane (DRM) fractionation by density gradient centrifugation; assay type: cell-based; details: limited cholesterol depletion with MBCD; readdition of cholesterol, FIG. 1D
T1 construct: expressed in transfected cells; host or cells: HEK 293T
T1 sequence (Q91X05 1-385): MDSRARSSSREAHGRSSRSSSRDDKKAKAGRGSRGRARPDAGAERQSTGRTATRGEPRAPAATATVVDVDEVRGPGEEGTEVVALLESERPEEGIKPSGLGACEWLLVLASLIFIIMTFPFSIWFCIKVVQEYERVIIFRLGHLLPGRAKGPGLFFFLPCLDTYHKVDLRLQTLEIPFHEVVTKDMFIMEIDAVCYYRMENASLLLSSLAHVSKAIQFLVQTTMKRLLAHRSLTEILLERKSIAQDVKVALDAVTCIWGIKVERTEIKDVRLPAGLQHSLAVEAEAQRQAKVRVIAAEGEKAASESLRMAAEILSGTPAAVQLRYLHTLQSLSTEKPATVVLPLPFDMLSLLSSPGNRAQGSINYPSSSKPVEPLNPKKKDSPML
Procedure: Preparation of Detergent-Resistant Membrane Domains and Cholesterol Measurement—For preparation of low-density Triton® X-100—insoluble membrane domains (DRM; LDF) HEK 293T cells were homogenized by 20 strokes in a Dounce homogenizer in 1 ml of MBS buffer (250 mM NaCl, 5 mM EDTA, 10 mM Tris, pH 7.4, proteinase inhibitors) in the presence of 1% Triton® X-100 and centrifuged for ten minutes at 3,000×g at 4° C. The lysates were incubated for 45 minutes on ice in the presence of 1% Triton® X-100, adjusted to 45% sucrose and pipetted at the bottom of an ultracentrifuge tube. Samples were then overlaid with a sucrose step gradient (2 ml of 30% sucrose and 1 ml of 5% sucrose in MBS) as described previously {Huber, 2003 #205}. Gradients were centrifuged for 20 hours at 200,000×g at 4° C. in a swing-out rotor, and seven fractions ([…] each) were collected starting from the top and analyzed by SDS-PAGE. Cholesterol was measured using the Amplex® Red Cholesterol Assay Kit (Molecular Probes).
Cell Culture Studies. Most cell studies used HEK 293T cells that were grown in DMEM as described [Huber et al. (2001) J. Biol. Chem. 18:18]. Cholesterol-depleted cells were prepared by growing cells in DMEM with pravastatin (8 μM) for two days and then methyl-β-cyclodextrine (MBCD; 5 mM) for 30 minutes just before the experiment. […]

[2] = biological target: T1, Podocin; experiment: Photoaffinity labeling with photoactivatable lipids in HEK 293T cells; assay type: binding; details: Podocin expressed in HEK 293T cells, 16 hours, UV irradiation, autoradiography
Procedure: (§1) Photoaffinity labeling. Experiments were performed as described infra. For labeling with [3H]photocholesterol or [3H]photophosphatidylcholine, cells were supplemented with delipidized FCS and [3H]photocholesterol-MBCD complex or 10-azi-stearate and [3H]choline were added. After 16 hours, cells were washed three times with Ca/Mg-PBS (PBS containing 0.1 mM CaCl2 and 1 mM MgCl2) and irradiated for 30 minutes in Ca/Mg-PBS with a 100 W mercury lamp. For further analysis, cells were lysed on ice for 1 h in lysis buffer (50 mM Tris-HCl pH 7.4, 140 mM NaCl, 5 mM EDTA, 0.5 mM phenylmethylsulfonyl fluoride (PMSF), 1% Triton® X-100, 0.5% deoxycholate). The lysate was centrifuged for eight minutes at 10,000×g, and the supernatant was subjected to immunoprecipitation using an anti-FLAG monoclonal antibody. Aliquots of the starting extract, the supernatants after immunoprecipitation and the immunoprecipitates were separated by SDS-PAGE (12%) followed by blotting of the proteins on PVDF membrane. Radioactivity was detected by phosphoimaging (Fujifilm BAS-2500, Fuji Photo Film Co., Ltd, Japan) using a Tritium-sensitive BAS-TR2025 imaging plate (Fuji Photo Film Co., Ltd, Japan). From the same membrane, an immunoblot was performed using anti-FLAG antibodies.
(§2) Cell Culture Studies. Most cell studies used HEK 293T cells that were grown in DMEM as described [Huber et al. (2001) J. Biol. Chem. 18:18]. […]

[3] = biological target: T2, MEC-2 (Caenorhabditis elegans, UniProt Q27433); experiment: as above; assay type: binding, C. elegans; details: MEC-2 expressed in HEK 293T cells, 16 hours, UV irradiation, autoradiography
T2 construct: expressed in transfected cells; host or cells: HEK 293T
T2 sequence (Q27433 1-481): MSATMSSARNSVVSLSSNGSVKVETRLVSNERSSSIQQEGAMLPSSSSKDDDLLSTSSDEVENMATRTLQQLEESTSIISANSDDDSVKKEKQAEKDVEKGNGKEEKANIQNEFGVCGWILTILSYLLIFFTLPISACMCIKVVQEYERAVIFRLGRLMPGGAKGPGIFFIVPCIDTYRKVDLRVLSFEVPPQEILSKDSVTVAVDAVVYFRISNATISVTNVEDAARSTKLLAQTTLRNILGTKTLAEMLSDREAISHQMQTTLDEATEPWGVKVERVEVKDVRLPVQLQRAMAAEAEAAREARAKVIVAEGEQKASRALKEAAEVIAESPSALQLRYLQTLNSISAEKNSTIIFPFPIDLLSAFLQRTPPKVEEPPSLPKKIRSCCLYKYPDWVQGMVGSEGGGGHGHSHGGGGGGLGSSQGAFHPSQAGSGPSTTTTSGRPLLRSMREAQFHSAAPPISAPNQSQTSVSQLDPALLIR
Procedure: as §1, §2

CC(C)CCC[C@@H](C)[C@H]1CC[C@H]2[C@@H]3CC=C4C[C@@H](O)CC[C@]4(C)[C@H]3CC[C@]12C [cholesterol] was tested, and the “Podocin in DRM fractions” value [1] was “could be reversed”, the “binding of photoactivatable lipid to Podocin” value [2] was “bound” and the “binding of photoactivatable lipid to MEC-2” value [3] was “bound”.
